Drawing on BindingDB's records for doi:10.1021/jm00402a012 (Harvard Medical School, 1988), this text covers Ki for 3 compounds.

SMILES strings stand for the structures.

A short description of this experiment: Inhibition of Folyl-polyglutamate synthase from mouse liver.
Turning to `Nc1nc(N)c2nc(CNc3ccc(C(=O)NC(CCS(=O)(=O)O)C(=O)O)cc3)cnc2n1` (stereo not drawn) [2-{4-[(2,4-Diamino-pteridin-6-ylmethyl)-amino]-benzoylamino}-4-sulfo-butyric acid], the Ki worked out at 45 µM. In other words, the double-digit micromolar range.

As for `CN(Cc1cnc2nc(N)nc(N)c2n1)c1ccc(C(=O)NC(CCP(=O)(O)O)C(=O)O)cc1` (stereo not drawn) [2-{4-[(2,4-Diamino-pteridin-6-ylmethyl)-methyl-amino]-benzoylamino}-4-phosphono-butyric acid], the affinity corresponds to a Ki of 185 µM.

With `CN(Cc1cnc2nc(N)nc(N)c2n1)c1ccc(C(=O)NC(CCS(=O)(=O)O)C(=O)O)cc1` (stereo not drawn) [2-{4-[(2,4-Diamino-pteridin-6-ylmethyl)-methyl-amino]-benzoylamino}-4-sulfo-butyric acid], the affinity, expressed as Ki, was 188 µM.

The Ki is the equilibrium dissociation constant of an inhibitor or competing ligand from its target. A high value points to a looser hold on the target.
